Data from US9000022B2 (Exelixis Patent Company LLC, priority 2005, dated 2015).

System: LXRα and/or LXRβ
Assay: Co-transfection assay (LXRE luciferase reporter, CV-1 cells)
Assay type: cell-based, human
Conditions: tested as described in Example 33; IC50 or EC50 for LXRα and/or LXRβ, isoform not specified; read-out: activity (IC50 or EC50 for LXR)
Summary of the method: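 Luciferase signal measures LXR-RXR transcriptional activation in transiently transfected CV-1 cells carrying human LXRα or LXRβ, RXRα and a single-copy LXRE reporter. Cells were exposed to compound for 20 h at 37 °C with at most 1% DMSO, using 10 μM final for screening. Potency was derived from 4-parameter fits of 8-point, half-log dose curves averaged over ≥3 runs, and efficacy was expressed as % of a reference agonist.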

Row | IC50 or EC50 (potency, activation or inhibition) [nM] | Structure (SMILES)
1 | < 1000 | Cc1c(Cl)cccc1-c1nc(C(C)(C)O)cn1-c1ccc(-c2ccc(CO)c(S(C)(=O)=O)c2)cc1F [Example 120, 2-(2-(3-chloro-2-methylphenyl)-1-(3-fluoro-4′-(hydroxymethyl)-3′-(methylsulfonyl)biphenyl-4-yl)-1H-imidazol-4-yl)propan-2-ol]
2 | < 1000 | CC(C)(O)c1cn(-c2ccc(-c3ccc(CO)c(S(C)(=O)=O)c3)cc2Cl)c(-c2c(F)cccc2Cl)n1 [Example 147, 2-(1-(3-chloro-4′-(hydroxymethyl)-3′-(methylsulfonyl)biphenyl-4-yl)-2-(2-chloro-6-fluorophenyl)-1H-imidazol-4-yl)propan-2-ol]
3 | < 1000 | CCS(=O)(=O)c1cccc(-c2ccc(-n3cc(C(=O)NC(C)(C)CO)nc3-c3c(Cl)cccc3Cl)c(Cl)c2)c1 [Example 464, 1-(3-chloro-3′-(ethylsulfonyl)biphenyl-4-yl)-2-(2,6-dichlorophenyl)-N-(1-hydroxy-2-methylpropan-2-yl)-1H-imidazole-4-carboxamide]
4 | < 1000 | CC(C)(O)c1cn(-c2ccc(-c3cccc(S(C)(=O)=O)c3)cc2Cl)c(-c2cccc(F)c2Cl)n1 [Example 151, 2-(1-(3-chloro-3′-(methyl-sulfonyl)biphenyl-4-yl)-2-(2-chloro-3-fluorophenyl)-1H-imidazol-4-yl)propan-2-ol]
5 | < 1000 | CC(C)(O)c1cn(-c2ccc(-c3cccc(S(C)(=O)=O)c3)cc2F)c(-c2cccc(F)c2Cl)n1 [Example 123, 2-(2-(2-chloro-3-fluorophenyl)-1-(3-fluoro-3′-(methylsulfonyl)biphenyl-4-yl)-1H-imidazol-4-yl)propan-2-ol]
6 | < 1000 | Cc1cc(-c2cccc(S(C)(=O)=O)c2)ccc1-n1cc(C(C)(C)O)nc1-c1cccc(Cl)c1Cl [Example 179, 2-(2-(2,3-dichlorophenyl)-1-(3-methyl-3′-(methylsulfonyl)biphenyl-4-yl)-1H-imidazol-4-yl)propan-2-ol]
7 | < 1000 | CC(C)(O)c1cn(-c2ccc(-c3cccc(S(C)(=O)=O)c3)cc2F)c(-c2c(Cl)cccc2Cl)n1 [Example 115, 2-(2-(2,6-dichlorophenyl)-1-(3-fluoro-3′-(methylsulfonyl)biphenyl-4-yl)-1H-imidazol-4-yl)propan-2-ol]
8 | < 1000 | CCS(=O)(=O)c1cccc(-c2ccc(-n3cc(C(C)(C)O)nc3Cc3cccc(Cl)c3Cl)c(F)c2)c1 [Example 450, 2-(2-(2,3-dichlorobenzyl)-1-(3′-(ethylsulfonyl)-3-fluorobiphenyl-4-yl)-1H-imidazol-4-yl)propan-2-ol]
9 | < 1000 | CCS(=O)(=O)c1cccc(-c2ccc(-n3cc(C(C)(C)O)nc3-c3c(Cl)cccc3Cl)c(C)c2)c1 [Example 182, 2-(2-(2,6-dichlorophenyl)-1-(3′-(ethylsulfonyl)-3-methylbiphenyl-4-yl)-1H-imidazol-4-yl)propan-2-ol]
10 | < 1000 | CC(C)(O)c1cn(-c2ccc(-c3cccc(S(C)(=O)=O)c3)cc2F)c(-c2cccc(Cl)c2Cl)n1 [Example 113, 2-(2-(2,3-dichlorophenyl)-1-(3-fluoro-3′-(methylsulfonyl)biphenyl-4-yl)-1H-imidazol-4-yl)propan-2-ol]

More lines, now with the values behind:

Row | Structure (SMILES) | IC50 or EC50 (potency, activation or inhibition) [nM]
11 | NS(=O)(=O)c1cccc(-c2ccc(-c3[nH]c(C(F)(F)F)nc3-c3ccccc3Cl)cc2)c1 [Example 361, 4′-[4-(2-chlorophenyl)-2-(trifluoro-methyl)-1H-imidazol-5-yl]biphenyl-3-sulfonamide] | 1000 to 10000
12 | CC(C)(O)c1cn(-c2ccc(-c3cccc(S(C)(=O)=O)c3)c(F)c2)c(-c2ccccc2Cl)n1 [Example 387, 2-{2-(2-chlorophenyl)-1-[2-fluoro-3′-(methylsulfonyl)biphenyl-4-yl]-1H-imidazol-4-yl}propan-2-ol] | 1000 to 10000
13 | CC(C)(C)NC(=O)c1cn(-c2ccc(-c3cccc(S(C)(=O)=O)c3)cc2Cl)c(-c2c(Cl)cccc2Cl)n1 [Example 465, N-tert-butyl-1-(3-chloro-3′-(methylsulfonyl)biphenyl-4-yl)-2-(2,6-dichlorophenyl)-1H-imidazole-4-carboxamide] | < 1000
14 | CC(C)(CO)NC(=O)c1cn(-c2ccc(-c3cccc(S(C)(=O)=O)c3)cc2)c(-c2c(Cl)cccc2Cl)n1 [Example 481, 2-(2,6-dichlorophenyl)-N-(1-hydroxy-2-methylpropan-2-yl)-1-(3′-(methylsulfonyl)biphenyl-4-yl)-1H-imidazole-4-carboxamide] | < 1000
15 | CNS(=O)(=O)c1cccc(-c2ccc(-n3cc(C(C)(C)O)nc3-c3ccccc3C(F)(F)F)cc2)c1 [Example 344, 4′-{4-(1-hydroxy-1-methylethyl)-2-[2-(trifluoromethyl)phenyl]-1H-imidazol-1-yl}-N-methylbiphenyl-3-sulfonamide] | < 1000
16 | CCS(=O)(=O)c1cccc(-c2ccc(-n3cc(C(=O)NCC(F)(F)F)nc3-c3c(Cl)cccc3Cl)c(C)c2)c1 [Example 104, 2-(2,6-dichlorophenyl)-1-(3′-(ethylsulfonyl)-3-methylbiphenyl-4-yl)-N-(2,2,2-trifluoroethyl)-1H-imidazole-4-carboxamide] | < 1000
17 | CC(C)(O)c1cn(-c2ccc(-c3ccc(C(=O)NCc4ccccc4)c(S(C)(=O)=O)c3)cc2Cl)c(-c2c(F)cccc2Cl)n1 [Example 80, N-benzyl-3′-chloro-4′-(2-(2-chloro-6-fluorophenyl)-4-(2-hydroxypropan-2-yl)-1H-imidazol-1-yl)-3-(methyl-sulfonyl)biphenyl-4-carboxamide] | 1000 to 10000
18 | CC(C)(O)c1cn(-c2ccc(-c3cccc(S(N)(=O)=O)c3)cc2)c(-c2ccccc2Cl)n1 [Example 384, 4′-[2-(2-chlorophenyl)-4-(1-hydroxy-1-methylethyl)-1H-imidazol-1-yl]biphenyl-3-sulfonamide] | 1000 to 10000
19 | CC(C)(C)c1ccc(-c2ccc(-n3cc(C(C)(C)O)nc3-c3ccccc3Cl)cc2)cc1 [Example 389, 2-{2-(2-chlorophenyl)-1-[4′-(1,1-dimethylethyl)biphenyl-4-yl]-1H-imidazol-4-yl}propan-2-ol] | 1000 to 10000
20 | CC(C)(O)CNC(=O)c1cn(-c2ccc(-c3cccc(S(C)(=O)=O)c3)cc2Cl)c(-c2c(Cl)cccc2Cl)n1 [Example 472, 1-(3-chloro-3′-(methylsulfonyl)biphenyl-4-yl)-2-(2,6-dichlorophenyl)-N-(2-hydroxy-2-methylpropyl)-1H-imidazole-4-carboxamide] | < 1000
21 | CC(C)(O)c1cn(-c2ccc(-c3ccc(C(C)(C)O)c(S(C)(=O)=O)c3)cc2Cl)c(-c2ccccc2Cl)n1 [Example 162, 2-(3′-chloro-4′-(2-(2-chlorophenyl)-4-(2-hydroxypropan-2-yl)-1H-imidazol-1-yl)-3-(methylsulfonyl)biphenyl-4-yl)propan-2-ol] | < 1000
22 | CCOC(=O)c1cn(-c2ccc(-c3cccc(S(C)(=O)=O)c3)cc2)c(-c2ccccc2)n1 [Example 376, ethyl 1-[3′-(methylsulfonyl)biphenyl-4-yl]-2-phenyl-1H-imidazole-4-carboxylate] | < 1000
